Patent US8394848B2, “Compounds that modulate intracellular calcium” (Calcimedica, Inc., priority 2008, dated 2013)

Test system: JR251 or RBL cells
Assay: Store-operated calcium entry, either JR251 or RBL cells, or both
Type: cell-based
In short: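 FLIPR calcium-entry readout in fluo-4-loaded cells held in Ca2+-free HBSS before calcium add-back. For RBL-2H3, store depletion used thapsigargin for 25 min after a 5 min compound pre-incubation, and IC50 was based on the 7 s Upslope. For Orai1/STIM1 stable cells, compound was pre-incubated 30 min and IC50 was based on Peak-Basal.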

| IC50 | SMILES |
| --- | --- |
| < 10 µM | COc1cc(F)c(-c2csc(NC(=O)c3cc4ccccc4o3)c2C(=O)O)c(F)c1 [2-(benzofuran-2-carboxamido)-4-(2,6-difluoro-4-methoxyphenyl)thiophene-3-carboxylic acid] |
| < 10 µM | O=C(Nc1scc(-c2ccc(Cl)cc2)c1C(=O)O)c1ccc2nccn2c1 [4-(4-chlorophenyl)-2-(imidazo[1,2-a]pyridine-6-carboxamido)thiophene-3-carboxylic acid] |
| < 10 µM | O=C(Nc1scc(-c2ccc(Cl)cc2)c1C(=O)O)c1c[nH]nc1-c1ccccc1 [4-(4-chlorophenyl)-2-(3-phenyl-1H-pyrazole-4-carboxamido)thiophene-3-carboxylic acid] |
| < 10 µM | CC(C(=O)Nc1scc(-c2ccc(Cl)cc2)c1C(=O)O)C(C)c1ccccc1 (stereo not shown) [4-(4-chlorophenyl)-2-(2-methyl-3-phenylbutanamido)thiophene-3-carboxylic acid] |
| < 10 µM | O=C(Nc1scc(-c2ccc(Cl)cc2)c1C(=O)O)c1nc2c(F)cccc2o1 [4-(4-chlorophenyl)-2-(4-fluorobenzo[d]oxazole-2-carboxamido)thiophene-3-carboxylic acid] |
| < 10 µM | O=C(Nc1scc(-c2ccc(Cl)c(Cl)c2)c1C(=O)O)c1ccc2snnc2c1 [2-(benzo[d][1,2,3]thiadiazole-5-carboxamido)-4-(3,4-dichlorophenyl)thiophene-3-carboxylic acid] |
| < 10 µM | Cc1cc(-c2csc(NC(=O)c3nc4ccccc4o3)c2C(=O)O)c(F)cc1Cl [2-(benzo[d]oxazole-2-carboxamido)-4-(4-chloro-2-fluoro-5-methylphenyl)thiophene-3-carboxylic acid] |
| < 10 µM | Cc1ccc(-c2csc(NC(=O)c3nc4cccc(C#N)c4o3)c2C(=O)O)c(F)c1F [2-(7-cyanobenzo[d]oxazole-2-carboxamido)-4-(2,3-difluoro-4-methylphenyl)thiophene-3-carboxylic acid] |
| < 10 µM | Cc1ccc(-c2csc(NC(=O)c3ccc4occc4c3)c2C(=O)O)c(F)c1F [2-(benzofuran-5-carboxamido)-4-(2,3-difluoro-4-methylphenyl)thiophene-3-carboxylic acid] |
| < 10 µM | O=C(Nc1scc(-c2ccc(Cl)cc2)c1C(=O)O)c1ncc(C(F)(F)F)cn1 [4-(4-chlorophenyl)-2-(5-(trifluoromethyl)pyrimidine-2-carboxamido)thiophene-3-carboxylic acid] |
| < 10 µM | Cc1ccsc1C(=O)Nc1scc(-c2ccc(Cl)cc2)c1C(=O)O [4-(4-chlorophenyl)-2-(3-methylthiophene-2-carboxamido)thiophene-3-carboxylic acid] |
| < 10 µM | O=C(Nc1scc(-c2ccc(Cl)c(F)c2F)c1C(=O)O)c1nc2ccccc2s1 [2-(benzo[d]thiazole-2-carboxamido)-4-(4-chloro-2,3-difluorophenyl)thiophene-3-carboxylic acid] |
| < 10 µM | O=C(NCC1CCCCC1)Nc1scc(-c2ccc(Cl)cc2)c1C(=O)O [4-(4-chlorophenyl)-2-(3-(cyclohexylmethyl)ureido)thiophene-3-carboxylic acid] |
| < 10 µM | COc1cccc(CC(=O)Nc2scc(-c3ccc(Cl)c(Cl)c3)c2C(=O)O)c1 [4-(3,4-dichlorophenyl)-2-(2-(3-methoxyphenyl)acetamido)thiophene-3-carboxylic acid] |
| < 10 µM | O=C(O)c1c(-c2ccc(Cl)cc2)csc1NC(=O)C(F)Cc1ccccc1Cl (stereo not shown) [4-(4-chlorophenyl)-2-(3-(2-chlorophenyl)-2-fluoropropanamido)thiophene-3-carboxylic acid] |
| < 10 µM | O=C(Nc1scc(-c2ccc(Cl)cc2)c1C(=O)O)c1nc2cccc(F)c2o1 [4-(4-chlorophenyl)-2-(7-fluorobenzo[d]oxazole-2-carboxamido)thiophene-3-carboxylic acid] |
| < 10 µM | O=C(O)c1c(-c2ccc(Br)cc2)csc1Nc1nc(-c2ccccc2)no1 [4-(4-bromophenyl)-2-(3-phenyl-1,2,4-oxadiazol-5-ylamino)thiophene-3-carboxylic acid] |
| < 10 µM | Cc1cc(-c2csc(NC(=O)c3cc4ccccc4o3)c2C(=O)O)c(C)cc1Br [2-(benzofuran-2-carboxamido)-4-(4-bromo-2,5-dimethylphenyl)thiophene-3-carboxylic acid] |
| < 10 µM | COc1cccc2c1CC(C(=O)Nc1scc(-c3ccc(Br)cc3)c1C(=O)O)CC2 (stereo not shown) [4-(4-bromophenyl)-2-(8-methoxy-1,2,3,4-tetrahydronaphthalene-2-carboxamido)thiophene-3-carboxylic acid] |
| < 10 µM | Cc1cnc(C(=O)Nc2scc(-c3ccc(Cl)cc3)c2C(=O)O)cn1 [4-(4-chlorophenyl)-2-(5-methylpyrazine-2-carboxamido)thiophene-3-carboxylic acid] |
| < 10 µM | O=C(Nc1scc(-c2ccc(Cl)c(F)c2)c1C(=O)O)c1ccc2snnc2c1 [2-(benzo[d][1,2,3]thiadiazole-5-carboxamido)-4-(4-chloro-3-fluorophenyl)thiophene-3-carboxylic acid] |
| < 10 µM | O=C(C#Cc1ccccc1)Nc1scc(-c2ccc(Cl)cc2)c1C(=O)O [4-(4-chlorophenyl)-2-(3-phenylpropiolamido)thiophene-3-carboxylic acid] |

| IC50 | SMILES |
| --- | --- |
| < 10 µM | Cc1cccc2nc(C(=O)Nc3scc(-c4ccc(Cl)cc4)c3C(=O)O)oc12 [4-(4-chlorophenyl)-2-(7-methylbenzo[d]oxazole-2-carboxamido)thiophene-3-carboxylic acid] |
| < 10 µM | Cc1ccc(-c2csc(NC(=O)c3ccsc3)c2C(=O)O)cc1 [2-(thiophene-3-carboxamido)-4-p-tolylthiophene-3-carboxylic acid] |
| < 10 µM | O=C(O)c1c(-c2ccc(Cl)cc2)csc1NC(=O)c1csc2nnsc12 [4-(4-chlorophenyl)-2-(thieno[2,3-d][1,2,3]thiadiazole-6-carboxamido)thiophene-3-carboxylic acid] |
| < 10 µM | O=C(Nc1scc(-c2ccc(Cl)cc2)c1C(=O)O)c1ccc2ncoc2c1 [2-(benzo[d]oxazole-6-carboxamido)-4-(4-chlorophenyl)thiophene-3-carboxylic acid] |
| < 10 µM | O=C(CCc1ccccc1)Nc1scc(-c2ccc(O)cc2)c1C(=O)O [4-(4-hydroxyphenyl)-2-(3-phenylpropanamido)thiophene-3-carboxylic acid] |
| < 10 µM | COc1cc(F)c(-c2csc(NC(=O)c3cc4ccccc4o3)c2C(=O)O)cc1F [2-(benzofuran-2-carboxamido)-4-(2,5-difluoro-4-methoxyphenyl)thiophene-3-carboxylic acid] |
| < 10 µM | O=C(O)c1c(-c2ccc(Br)cc2)csc1NC(=O)C(F)Cc1cc(F)ccc1Cl (stereo not shown) [4-(4-bromophenyl)-2-(3-(2-chloro-5-fluorophenyl)-2-fluoropropanamido)thiophene-3-carboxylic acid] |
| < 10 µM | Cc1ccc(-c2csc(NC(=O)c3nc4c(F)cccc4o3)c2C(=O)O)c(F)c1F [4-(2,3-difluoro-4-methylphenyl)-2-(4-fluorobenzo[d]oxazole-2-carboxamido)thiophene-3-carboxylic acid] |
| < 10 µM | CC(CC(=O)Nc1scc(-c2ccc(Cl)cc2)c1C(=O)O)c1ccccc1 (stereo not shown) [4-(4-chlorophenyl)-2-(3-phenylbutanamido)thiophene-3-carboxylic acid] |
| < 10 µM | O=C(Nc1scc(-c2ccc(Br)cc2)c1C(=O)O)c1ccc(-c2ccccc2)s1 [4-(4-bromophenyl)-2-(5-phenylthiophene-2-carboxamido)thiophene-3-carboxylic acid] |
| < 10 µM | Cc1ccc(-c2csc(NC(=O)c3scc(S(C)(=O)=O)c3Cl)c2C(=O)O)cc1 [2-(3-chloro-4-(methylsulfonyl)thiophene-2-carboxamido)-4-p-tolylthiophene-3-carboxylic acid] |
| < 10 µM | O=C(O)c1c(-c2ccc(Cl)cc2)csc1NC(=O)C(F)Cc1c(F)cccc1Cl (stereo not shown) [2-(3-(2-chloro-6-fluorophenyl)-2-fluoropropanamido)-4-(4-chlorophenyl)thiophene-3-carboxylic acid] |
| < 10 µM | O=C(Nc1scc(-c2ccc(Cl)cc2)c1C(=O)O)c1ccc(C(F)(F)F)nc1 [4-(4-chlorophenyl)-2-(6-(trifluoromethyl)nicotinamido)thiophene-3-carboxylic acid] |
| < 10 µM | O=C(CCc1ccccc1)Nc1scc(-c2ccc(Cl)cc2Cl)c1C(=O)O [4-(2,4-dichlorophenyl)-2-(3-phenylpropanamido)thiophene-3-carboxylic acid] |
| < 10 µM | O=C(Nc1scc(-c2cc(F)c(F)c(F)c2)c1C(=O)O)c1cc2ccccc2o1 [2-(benzofuran-2-carboxamido)-4-(3,4,5-trifluorophenyl)thiophene-3-carboxylic acid] |
| < 10 µM | O=C(CSc1ccccc1)Nc1scc(-c2ccc(Cl)cc2Cl)c1C(=O)O [4-(2,4-dichlorophenyl)-2-(2-(phenylthio)acetamido)thiophene-3-carboxylic acid] |
| < 10 µM | N#C/C(=C\c1ccco1)C(=O)Nc1scc(-c2ccc(Cl)cc2)c1C(=O)O [(E)-4-(4-chlorophenyl)-2-(2-cyano-3-(furan-2-yl)acrylamido)thiophene-3-carboxylic acid] |
| < 10 µM | O=C(Nc1scc(-c2cc3cc(Cl)ccc3o2)c1C(=O)O)c1cc2ccccc2o1 [2-(benzofuran-2-carboxamido)-4-(5-chlorobenzofuran-2-yl)thiophene-3-carboxylic acid] |
| < 10 µM | O=C(Cc1ccccc1)Nc1scc(-c2ccc(Cl)cc2)c1C(=O)O [4-(4-chlorophenyl)-2-(2-phenylacetamido)thiophene-3-carboxylic acid] |
| < 10 µM | Cc1ccsc1C(=O)Nc1scc(-c2ccc(Br)cc2)c1C(=O)O [4-(4-bromophenyl)-2-(3-methylthiophene-2-carboxamido)thiophene-3-carboxylic acid] |
| < 10 µM | O=C(O)c1c(-c2ccc(Cl)cc2)csc1NC(=O)C(F)Cc1ccc(F)cc1Cl (stereo not shown) [2-(3-(2-chloro-4-fluorophenyl)-2-fluoropropanamido)-4-(4-chlorophenyl)thiophene-3-carboxylic acid] |
